Results: US8536202B2, “Triazole-substituted anthranilamides as pesticides” (Bayer Cropscience AG, priority 2010, dated 2013)
Like-named read-outs stand apart in the source and are kept apart here.

Key:
[1] = tested on: caterpillars of the armyworm (Spodoptera frugiperda); assay: Spodoptera frugiperda test (SPODFR spray treatment); type: in vivo; conditions: 168 h; for pest or weed control at 100 g/ha: read-out: activity in %
Summary of the method: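 Percent caterpillar mortality read 7 days after infestation (0% none killed, 100% all killed). Treatment was a spray of the acetone/DMF/emulsifier formulation, water-diluted to test concentration, onto Zea mays leaf discs, allowed to dry before larvae were added.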

[2] = log P determination by HPLC on reversed-phase columns (EEC Directive 79/831 Annex V.A8); type: physicochemical; conditions: pH 2.7
Summary of the method: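 Calibration used unbranched alkan-2-ones of 3 to 16 carbons with known log P, values interpolated linearly from retention times between neighbouring standards. Acidic-range LC-MS run at pH 2.7, eluents aqueous and acetonitrile formic acid 0.1%, linear gradient 10% to 95% acetonitrile.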

[3] = tested on: larvae of the mustard beetle (Phaedon cochleariae); assay: Phaedon test (PHAECO spray treatment); type: in vivo; conditions: 168 h, read-out: activity in %
Summary of the method: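 Mortality of mustard beetle larvae, expressed as percent killed (100% all, 0% none), assessed 7 days after spraying. Spray liquor made from compound in acetone plus dimethylformamide with alkylaryl polyglycol ether, diluted in emulsifier-containing water to the desired concentration.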

[4] = reversed-phase C18 HPLC column, HPLC on reversed-phase columns (C 18), EEC Directive 79/831 Annex V.A8, read-out: logP
[5] = HPLC on reversed-phase columns (C 18), EEC Directive 79/831 Annex V.A8, read-out: logP

SMILES: Cc1cc(Cl)cc(C(=O)NC(C)C2CC2)c1NC(=O)c1cc(Cn2ncc(C(F)(C(F)(F)F)C(F)(F)F)n2)nn1-c1ncccc1Cl (stereo not drawn) [Example 258]
- pest or weed control at 100 g/ha ([1]; 100 g/ha, after 7 days): 100%
- chromatographic logP [2, 4]: 4.61
- pest or weed control at 100 g/ha ([3]; 100 g/ha, after 7 days): 100%

SMILES: Cc1cc(Cl)cc(C(=O)NC(C)C)c1NC(=O)c1cc(Cn2ncc(C(F)(C(F)(F)F)C(F)(F)F)n2)nn1-c1ncccc1Cl [Example 259]
- pest or weed control at 100 g/ha ([1]; 100 g/ha, after 7 days): 100%
- chromatographic logP [2]: 4.3
- pest or weed control at 100 g/ha ([3]; 100 g/ha, after 7 days): 100%

SMILES: Cc1cc(Cl)cc(C(=O)NC(C)(C)C)c1NC(=O)c1cc(Cn2ncc(C(F)(C(F)(F)F)C(F)(F)F)n2)nn1-c1ncccc1Cl [Example 260]
- pest or weed control at 100 g/ha ([1]; 100 g/ha, after 7 days): 100%
- chromatographic logP [2, 4]: 4.64
- pest or weed control at 100 g/ha ([3]; 100 g/ha, after 7 days): 100%

SMILES: Cc1cc(Cl)cc(C(=O)NCC2CC2)c1NC(=O)c1cc(Cn2ncc(C(F)(C(F)(F)F)C(F)(F)F)n2)nn1-c1ncccc1Cl [Example 261]
- pest or weed control at 100 g/ha ([1]; 100 g/ha, after 7 days): 100%
- chromatographic logP [2, 4]: 4.34
- pest or weed control at 100 g/ha ([3]; 100 g/ha, after 7 days): 100%

SMILES: Cc1cc(Cl)cc(C(=O)NC2CC2)c1NC(=O)c1cc(Cn2ncc(C(F)(C(F)(F)F)C(F)(F)F)n2)nn1-c1ncccc1Cl [Example 264]
- pest or weed control at 100 g/ha ([1]; 100 g/ha, after 7 days): 100%
- chromatographic logP [2]: 4.01
- pest or weed control at 100 g/ha ([3]; 100 g/ha, after 7 days): 100%

SMILES: Cc1cc(I)cc(C(=O)NC(C)C2CC2)c1NC(=O)c1cc(Cn2ncc(C(F)(C(F)(F)F)C(F)(F)F)n2)nn1-c1ncccc1Cl (stereo not drawn) [Example 266]
- pest or weed control at 100 g/ha ([1]; 100 g/ha, after 7 days): 100%
- chromatographic logP [2, 4]: 4.86
- pest or weed control at 100 g/ha ([3]; 100 g/ha, after 7 days): 100%

SMILES: Cc1cc(I)cc(C(=O)NC(C)C)c1NC(=O)c1cc(Cn2ncc(C(F)(C(F)(F)F)C(F)(F)F)n2)nn1-c1ncccc1Cl [Example 267]
- pest or weed control at 100 g/ha ([1]; 100 g/ha, after 7 days): 100%
- chromatographic logP [2]: 4.51
- pest or weed control at 100 g/ha ([3]; 100 g/ha, after 7 days): 100%

SMILES: Cc1cc(I)cc(C(=O)NC(C)(C)C)c1NC(=O)c1cc(Cn2ncc(C(F)(C(F)(F)F)C(F)(F)F)n2)nn1-c1ncccc1Cl [Example 268]
- pest or weed control at 100 g/ha ([1]; 100 g/ha, after 7 days): 100%
- chromatographic logP [2, 4]: 4.9
- pest or weed control at 100 g/ha ([3]; 100 g/ha, after 7 days): 100%

SMILES: Cc1cc(I)cc(C(=O)NCC2CC2)c1NC(=O)c1cc(Cn2ncc(C(F)(C(F)(F)F)C(F)(F)F)n2)nn1-c1ncccc1Cl [Example 269]
- pest or weed control at 100 g/ha ([1]; 100 g/ha, after 7 days): 100%
- chromatographic logP [2, 4]: 4.58
- pest or weed control at 100 g/ha ([3]; 100 g/ha, after 7 days): 100%

SMILES: CSC[C@H](C)NC(=O)c1cc(I)cc(C)c1NC(=O)c1cc(Cn2ncc(C(F)(C(F)(F)F)C(F)(F)F)n2)nn1-c1ncccc1Cl [Example 270]
- pest or weed control at 20 g/ha ([1]; after 7 days): 100%
- chromatographic logP [2, 4]: 4.73
- pest or weed control at 100 g/ha ([3]; 100 g/ha, after 7 days): 100%

SMILES: Cc1cc(I)cc(C(=O)NC2CC2)c1NC(=O)c1cc(Cn2ncc(C(F)(C(F)(F)F)C(F)(F)F)n2)nn1-c1ncccc1Cl [Example 272]
- pest or weed control at 20 g/ha ([1]; after 7 days): 100%
- chromatographic logP [2]: 4.26
- pest or weed control at 100 g/ha ([3]; 100 g/ha, after 7 days): 100%

SMILES: CC(NC(=O)c1cc(Cl)cc(Cl)c1NC(=O)c1cc(Cn2ncc(C(F)(C(F)(F)F)C(F)(F)F)n2)nn1-c1ncccc1Cl)C1CC1 (stereo not drawn) [Example 274]
- pest or weed control at 20 g/ha ([1]; after 7 days): 100%
- chromatographic logP [2, 4]: 4.49
- pest or weed control at 100 g/ha ([3]; 100 g/ha, after 7 days): 100%

SMILES: CC(C)NC(=O)c1cc(Cl)cc(Cl)c1NC(=O)c1cc(Cn2ncc(C(F)(C(F)(F)F)C(F)(F)F)n2)nn1-c1ncccc1Cl [Example 275]
- pest or weed control at 100 g/ha ([1]; 100 g/ha, after 7 days): 100%
- chromatographic logP [2]: 4.17
- pest or weed control at 100 g/ha ([3]; 100 g/ha, after 7 days): 100%

SMILES: CC(C)(C)NC(=O)c1cc(Cl)cc(Cl)c1NC(=O)c1cc(Cn2ncc(C(F)(C(F)(F)F)C(F)(F)F)n2)nn1-c1ncccc1Cl [Example 276]
- pest or weed control at 100 g/ha ([1]; 100 g/ha, after 7 days): 100%
- chromatographic logP [2, 4]: 4.53
- pest or weed control at 100 g/ha ([3]; 100 g/ha, after 7 days): 100%

SMILES: O=C(NCC1CC1)c1cc(Cl)cc(Cl)c1NC(=O)c1cc(Cn2ncc(C(F)(C(F)(F)F)C(F)(F)F)n2)nn1-c1ncccc1Cl [Example 277]
- pest or weed control at 100 g/ha ([1]; 100 g/ha, after 7 days): 100%
- chromatographic logP [2, 4]: 4.23
- pest or weed control at 100 g/ha ([3]; 100 g/ha, after 7 days): 100%

SMILES: CSC[C@H](C)NC(=O)c1cc(Cl)cc(Cl)c1NC(=O)c1cc(Cn2ncc(C(F)(C(F)(F)F)C(F)(F)F)n2)nn1-c1ncccc1Cl [Example 278]
- pest or weed control at 100 g/ha ([1]; 100 g/ha, after 7 days): 100%
- chromatographic logP [2, 4]: 4.38
- pest or weed control at 100 g/ha ([3]; 100 g/ha, after 7 days): 100%

SMILES: NC(=O)c1cc(Cl)cc(Cl)c1NC(=O)c1cc(Cn2ncc(C(F)(C(F)(F)F)C(F)(F)F)n2)nn1-c1ncccc1Cl [Example 279]
- pest or weed control at 100 g/ha ([1]; 100 g/ha, after 7 days): 100%
- chromatographic logP [2]: 3.46
- pest or weed control at 100 g/ha ([3]; 100 g/ha, after 7 days): 100%

SMILES: O=C(NC1CC1)c1cc(Cl)cc(Cl)c1NC(=O)c1cc(Cn2ncc(C(F)(C(F)(F)F)C(F)(F)F)n2)nn1-c1ncccc1Cl [Example 280]
- pest or weed control at 100 g/ha ([1]; 100 g/ha, after 7 days): 100%
- chromatographic logP [2]: 3.92
- pest or weed control at 100 g/ha ([3]; 100 g/ha, after 7 days): 100%

SMILES: Cc1cc(C#N)cc(C(=O)NC2(C3CC3)CC2)c1NC(=O)c1cc(Cn2ncc(C(F)(C(F)(F)F)C(F)(F)F)n2)nn1-c1ncccc1Cl [Example 283]
- pest or weed control at 100 g/ha ([1]; 100 g/ha, after 7 days): 100%
- chromatographic logP [2, 4]: 4.12
- pest or weed control at 100 g/ha ([3]; 100 g/ha, after 7 days): 100%

SMILES: Cc1cc(C#N)cc(C(=O)NC(C)(C)C)c1NC(=O)c1cc(Cn2ncc(C(F)(F)F)n2)nn1-c1ccccc1Cl [Example 285]
- pest or weed control at 100 g/ha ([1]; 100 g/ha, after 7 days): 100%
- chromatographic logP [2, 4]: 3.93
- pest or weed control at 100 g/ha ([3]; 100 g/ha, after 7 days): 100%

SMILES: CNC(=O)c1cc(Cl)cc(C)c1NC(=O)c1cc(Cn2ncc(C(F)(F)F)n2)nn1-c1ccccc1Cl [Example 287]
- pest or weed control at 100 g/ha ([1]; 100 g/ha, after 7 days): 100%
- chromatographic logP [2, 4]: 3.45
- pest or weed control at 100 g/ha ([3]; 100 g/ha, after 7 days): 100%

SMILES: Cc1cc(C#N)cc(C(=O)NC(C)C)c1NC(=O)c1cc(Cn2cc(C(F)(F)F)nn2)nn1-c1ccccc1Cl [Example 290]
- pest or weed control at 100 g/ha ([1]; 100 g/ha, after 7 days): 100%
- chromatographic logP [2, 4]: 3.17
- pest or weed control at 100 g/ha ([3]; 100 g/ha, after 7 days): 100%

SMILES: CNC(=O)c1cc(C#N)cc(C)c1NC(=O)c1cc(Cn2cc(C(F)(C(F)(F)F)C(F)(F)F)nn2)nn1-c1ccccc1Cl [Example 295]
- pest or weed control at 100 g/ha ([1]; 100 g/ha, after 7 days): 100%
- chromatographic logP [2, 4]: 3.46
- pest or weed control at 100 g/ha ([3]; 100 g/ha, after 7 days): 100%

SMILES: Cc1cc(C#N)cc(C(=O)NC2CC2)c1NC(=O)c1cc(Cn2cc(C(F)(F)F)nn2)nn1-c1ccccc1Cl [Example 296]
- pest or weed control at 100 g/ha ([1]; 100 g/ha, after 7 days): 100%
- chromatographic logP [2, 4]: 2.93
- pest or weed control at 100 g/ha ([3]; 100 g/ha, after 7 days): 100%

SMILES: CNC(=O)c1cc(C#N)cc(C)c1NC(=O)c1cc(Cn2ncc(C(F)(C(F)(F)F)C(F)(F)F)n2)nn1-c1ccccc1Cl [Example 297]
- pest or weed control at 100 g/ha ([1]; 100 g/ha, after 7 days): 100%
- chromatographic logP [2, 4]: 3.88
- pest or weed control at 100 g/ha ([3]; 100 g/ha, after 7 days): 100%

SMILES: Cc1cc(I)cc(C(=O)NC2CC2)c1NC(=O)c1cc(Cn2cc(C(F)(F)C(F)(F)F)nn2)nn1-c1ncccc1Cl [Example 310]
- pest or weed control at 100 g/ha ([1]; 100 g/ha, after 7 days): 100%
- chromatographic logP [2]: 3.49
- pest or weed control at 100 g/ha ([3]; 100 g/ha, after 7 days): 100%

SMILES: CCNC(=O)c1cc(I)cc(C)c1NC(=O)c1cc(Cn2cc(C(F)(F)C(F)(F)F)nn2)nn1-c1ncccc1Cl [Example 311]
- pest or weed control at 100 g/ha ([1]; 100 g/ha, after 7 days): 100%
- chromatographic logP [2]: 3.49
- pest or weed control at 100 g/ha ([3]; 100 g/ha, after 7 days): 100%

SMILES: Cc1cc(I)cc(C(=O)NC(C)C)c1NC(=O)c1cc(Cn2cc(C(F)(F)C(F)(F)C(F)(F)F)nn2)nn1-c1ncccc1Cl [Example 322]
- pest or weed control at 100 g/ha [1]: 100%
- chromatographic logP [2, 5]: 4.07
- pest or weed control at 100 g/ha [3]: 100%

SMILES: Cc1cc(I)cc(C(=O)NC2CC2)c1NC(=O)c1cc(Cn2cc(C(F)(F)C(F)(F)C(F)(F)F)nn2)nn1-c1ncccc1Cl [Example 323]
- pest or weed control at 100 g/ha [1]: 100%
- chromatographic logP [2, 5]: 3.82
- pest or weed control at 100 g/ha [3]: 100%
